Source: ChEMBL document CHEMBL6083213, “Discovery of benzimidazole-2-amide BNZ-111 as new tubulin inhibitor” (Bioorg Med Chem Lett, 2024)
Converted amounts (≈) assume the structure as drawn. The source made the active and inactive calls. The rule behind the calls is not given here.

How the values were obtained:
A549 [1] = experiment: Anticancer activity against human A549 cells assessed as inhibition of cell growth at 1 uM incubated for 72 hrs by MTT assay relative to control; type: functional
NCI-H460 [2] = experiment: Anticancer activity against human NCI-H460 cells assessed as inhibition of cell growth at 1 uM incubated for 72 hrs by MTT assay relative to control; type: functional
NCI-H1299 [3] = experiment: Anticancer activity against human NCI-H1299 cells assessed as inhibition of cell growth at 1 uM incubated for 72 hrs by MTT assay relative to control; type: functional
[4] = AUC in Sprague-Dawley rat at 10 mg/kg, po; type: ADME, organism-based; details: in vivo
[5] = Volume of distribution at steady state in Sprague-Dawley rat at 2 mg/kg, iv; type: ADME, organism-based; details: in vivo, read-out: Vdss
[6] = Clearance in Sprague-Dawley rat at 2 mg/kg, iv; type: ADME, organism-based; details: in vivo
[7] = Half life in Sprague-Dawley rat at 2 mg/kg, iv; type: ADME, organism-based; details: in vivo
[8] = Oral bioavailability in Sprague-Dawley rat at 10 mg/kg; type: ADME, organism-based; details: in vivo
[9] = Cmax in Sprague-Dawley rat at 10 mg/kg, po; type: ADME, organism-based; details: in vivo
[10] = Plasma protein binding in mouse; type: ADME, cell-free; details: read-out: PPB (converted)
A549 [11] = experiment: Anticancer activity against human A549 cells incubated for 24; type: functional, cell-based
[12] = Stability in rat plasma assessed as parent compound remaining after 4 hrs; type: ADME, cell-free; details: read-out: Stability
hERG (KCNH2) = hERG (KCNH2) (Homo sapiens, UniProt Q12809); experiment: Inhibition of hERG at 10 uM relative to control; type: toxicity
Vero = experiment: Cytotoxicity against african green monkey Vero cells incubated for 24 hrs; type: toxicity, cell-based; details: chlorocebus sabaeus
[13] = Plasma protein binding in human; type: ADME, cell-free; details: read-out: PPB (converted)
[14] = Microsomal stability in rat liver microsomes assessed as parent compound remaining measured after 30 mins; type: ADME, Microsome; details: read-out: Stability
NCI-H460 [15] = experiment: Anticancer activity against human NCI-H460 cells incubated for 24; type: functional, cell-based
HFL1 = experiment: Cytotoxicity against human HFL1 cells incubated for 24 hrs; type: toxicity, cell-based; details: hfl1, 24 h
[16] = Cytotoxicity against human SKOV3.ip1 cells incubated for 24 hrs; type: toxicity, cell-based; details: skov3.ip1, 24 h
[17] = Cytotoxicity against human A2780/CP20 cells incubated for 24 hrs; type: toxicity, cell-based; details: a2780/cp20, 24 h
[18] = Cytotoxicity against human HeyA8-MDR cells incubated for 24 hrs; type: toxicity, cell-based
HeyA8-MDR = experiment: Antitumor activity against human HeyA8-MDR cells xenografted in mouse assessed as tumor growth inhibition; type: functional, cell-based
L929 = experiment: Cytotoxicity against mouse L929 cells incubated for 24 hrs; type: toxicity, cell-based; details: l929, 24 h
[19] = Stability in mouse plasma assessed as parent compound remaining after 4 hrs; type: ADME, cell-free; details: read-out: Stability
[20] = Microsomal stability in mouse liver microsomes assessed as parent compound remaining measured after 30 mins; type: ADME, Microsome; details: read-out: Stability
[21] = Microsomal stability in human liver microsomes assessed as parent compound remaining measured after 30 mins; type: ADME, Microsome; details: read-out: Stability
[22] = Solubility of compound in 1 % DMSO-PBS buffer; type: physicochemical
[23] = Cytotoxicity against human SKOV3/TR cells incubated for 24 hrs; type: toxicity, cell-based
HEY A8 = experiment: Anticancer activity against human HEY A8 cells incubated for 24; type: functional, cell-based
CHO-K1 = experiment: Cytotoxicity against CHO-K1 cells incubated for 24 hrs; type: toxicity, cell-based, Cricetulus griseus; details: chinese hamster, cho-k1, 24 h
NIH3T3 = experiment: Cytotoxicity against mouse NIH3T3 cells incubated for 24 hrs; type: toxicity, cell-based; details: nih3t3, 24 h
NCI-H1299 [24] = experiment: Anticancer activity against human NCI-H1299 cells incubated for 24; type: functional, cell-based
[25] = Stability in human plasma assessed as parent compound remaining after 4 hrs; type: ADME, cell-free; details: read-out: Stability
A2780 = experiment: Anticancer activity against human A2780 cells incubated for 24; type: functional, cell-based

Chain of hERG (KCNH2) (Q12809 whole entry): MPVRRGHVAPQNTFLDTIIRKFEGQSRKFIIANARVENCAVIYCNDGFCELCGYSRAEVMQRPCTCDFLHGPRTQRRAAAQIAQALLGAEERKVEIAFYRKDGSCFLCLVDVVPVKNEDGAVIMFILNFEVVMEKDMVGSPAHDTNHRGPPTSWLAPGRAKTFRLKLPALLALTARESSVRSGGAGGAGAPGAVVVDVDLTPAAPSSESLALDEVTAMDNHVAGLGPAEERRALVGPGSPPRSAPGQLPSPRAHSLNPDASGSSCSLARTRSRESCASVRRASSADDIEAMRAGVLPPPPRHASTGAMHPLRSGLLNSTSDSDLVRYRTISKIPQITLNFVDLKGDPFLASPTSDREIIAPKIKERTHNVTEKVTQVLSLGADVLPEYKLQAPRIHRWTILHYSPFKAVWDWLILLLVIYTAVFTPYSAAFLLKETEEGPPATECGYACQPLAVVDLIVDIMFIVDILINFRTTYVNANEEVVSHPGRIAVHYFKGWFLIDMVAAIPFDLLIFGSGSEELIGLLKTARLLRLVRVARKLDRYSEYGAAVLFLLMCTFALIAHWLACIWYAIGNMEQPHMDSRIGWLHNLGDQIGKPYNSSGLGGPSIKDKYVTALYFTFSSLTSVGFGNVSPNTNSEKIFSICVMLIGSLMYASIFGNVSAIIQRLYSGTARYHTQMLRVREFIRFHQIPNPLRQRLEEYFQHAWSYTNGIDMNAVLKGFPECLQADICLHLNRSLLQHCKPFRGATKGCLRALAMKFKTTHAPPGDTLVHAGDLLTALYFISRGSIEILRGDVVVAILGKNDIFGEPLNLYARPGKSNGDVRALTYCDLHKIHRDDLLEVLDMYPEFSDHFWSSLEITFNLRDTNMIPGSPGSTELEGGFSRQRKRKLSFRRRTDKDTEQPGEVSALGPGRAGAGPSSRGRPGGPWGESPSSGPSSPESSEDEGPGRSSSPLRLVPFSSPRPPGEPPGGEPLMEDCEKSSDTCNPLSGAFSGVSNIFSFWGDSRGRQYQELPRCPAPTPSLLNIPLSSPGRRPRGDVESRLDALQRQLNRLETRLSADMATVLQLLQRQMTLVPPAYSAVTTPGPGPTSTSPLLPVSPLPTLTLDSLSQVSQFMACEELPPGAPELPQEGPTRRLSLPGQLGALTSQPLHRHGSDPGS

CCCOc1cc2[nH]c(NC(=O)CC)nc2cc1OC
inhibition at 1 µM (A549 [1]): 10%
inhibition at 1 µM (NCI-H460 [2]): 14%
inhibition at 1 µM (NCI-H1299 [3]): 11%

CCCOc1ccc2nc(NC(=O)NC)[nH]c2c1
AUC [4]: 590 ng·h/mL
Vd [5]: 2.8 L/kg
clearance [6]: 132 mL/min/kg
inhibition at 1 µM (A549 [1]): 59%
half-life [7]: 0.25 h
inhibition at 1 µM (NCI-H460 [2]): 54%
inhibition at 1 µM (NCI-H1299 [3]): 65%
bioavailability [8]: 44%
Cmax [9]: 580 ng/mL

CCCOc1cc2[nH]c(NC(=O)CC)nc2cc1Cl
inhibition at 1 µM (A549 [1]): 58%
inhibition at 1 µM (NCI-H460 [2]): 60%
inhibition at 1 µM (NCI-H1299 [3]): 55%

CCCOc1ccc2nc(NC(=O)CC)[nH]c2c1
AUC [4]: 930 ng·h/mL
Vd [5]: 6.4 L/kg
clearance [6]: 45.5 mL/min/kg
inhibition at 1 µM (A549 [1]): 58%
half-life [7]: 18.6 h
inhibition at 1 µM (NCI-H460 [2]): 46%
inhibition at 1 µM (NCI-H1299 [3]): 64%
bioavailability [8]: 25%
Cmax [9]: 1560 ng/mL

CCCOc1ccc2nc(N)[nH]c2c1
inhibition at 1 µM (A549 [1]): 8%
inhibition at 1 µM (NCI-H460 [2]): 13%
inhibition at 1 µM (NCI-H1299 [3]): 24%

CCCOc1ccc2c(c1)nc(NC(=O)OC)n2C
inhibition at 1 µM (A549 [1]): 23%
inhibition at 1 µM (NCI-H460 [2]): 10%
inhibition at 1 µM (NCI-H1299 [3]): 31%

CCCOc1ccc2nc(NS(=O)(=O)CC)[nH]c2c1
inhibition at 1 µM (A549 [1]): 4%
inhibition at 1 µM (NCI-H460 [2]): 6%
inhibition at 1 µM (NCI-H1299 [3]): 9%

CCCCOc1ccc2nc(NC(=O)OC)[nH]c2c1
inhibition at 1 µM (A549 [1]): 30%
inhibition at 1 µM (NCI-H460 [2]): 31%
inhibition at 1 µM (NCI-H1299 [3]): 39%

CCCCc1ccc2[nH]c(NC(=O)OC)nc2c1 [PARBENDAZOLE]
inhibition at 1 µM (A549 [1]): 47%
inhibition at 1 µM (NCI-H460 [2]): 27%
inhibition at 1 µM (NCI-H1299 [3]): 37%

CCCOc1ccc2nc(NC(=O)OC)[nH]c2c1 [OXIBENDAZOLE]
AUC [4]: 10 ng·h/mL
Vd [5]: 413 L/kg
clearance [6]: 350 mL/min/kg
inhibition at 1 µM (A549 [1]): 58%
half-life [7]: 27 h
inhibition at 1 µM (NCI-H460 [2]): 47%
inhibition at 1 µM (NCI-H1299 [3]): 65%
bioavailability [8]: 2.6%
Cmax [9]: 10 ng/mL

CCCOc1ccc2nc(N(C)C(=O)OC)[nH]c2c1
inhibition at 1 µM (A549 [1]): 0%
inhibition at 1 µM (NCI-H460 [2]): 8%
inhibition at 1 µM (NCI-H1299 [3]): 22%

CCCOc1cc2[nH]c(NC(=O)CC)nc2cc1C
inhibition at 1 µM (A549 [1]): 34%
inhibition at 1 µM (NCI-H460 [2]): 40%
inhibition at 1 µM (NCI-H1299 [3]): 26%

CCOc1ccc2nc(NC(=O)OC)[nH]c2c1
inhibition at 1 µM (A549 [1]): 25%
inhibition at 1 µM (NCI-H460 [2]): 27%
inhibition at 1 µM (NCI-H1299 [3]): 23%

CCCOc1ccc2nc(NC(=O)OC)n(C)c2c1
inhibition at 1 µM (A549 [1]): 10%
inhibition at 1 µM (NCI-H460 [2]): 10%
inhibition at 1 µM (NCI-H1299 [3]): 19%

CCCOc1cc2[nH]c(NC(=O)CC)nc2cc1F
fraction unbound [10]: 0.15
AUC [4]: 2140 ng·h/mL
Activity (A549 [11]): Active
remaining at 4 h [12]: 95%
Vd [5]: 0.6 L/kg
inhibition at 10 µM (hERG (KCNH2)): 29%
Activity (Vero): Non-toxic
fraction unbound [13]: 0.17
remaining at 0.5 h [14]: 20%
Activity (NCI-H460 [15]): Active
Activity (HFL1): Non-toxic
clearance [6]: 38.5 mL/min/kg
Activity [16]: Non-toxic
Activity [17]: Non-toxic
inhibition at 1 µM (A549 [1]): 64%
Activity [18]: Non-toxic
TGI (HeyA8-MDR): Active
Activity (L929): Non-toxic
remaining at 4 h [19]: 95%
half-life [7]: 0.3 h
remaining at 0.5 h [20]: 2.6%
remaining at 0.5 h [21]: 29%
inhibition at 1 µM (NCI-H460 [2]): 63%
inhibition at 1 µM (NCI-H1299 [3]): 62%
solubility [22]: 53 µM (≈ 14.1 µg/mL)
bioavailability [8]: 50%
Activity [23]: Non-toxic
Activity (HEY A8): Active
Activity (CHO-K1): Non-toxic
Activity (NIH3T3): Non-toxic
Activity (NCI-H1299 [24]): Active
remaining at 4 h [25]: > 99%
Activity (A2780): Active
Cmax [9]: 2760 ng/mL

COC(=O)Nc1nc2ccc(OCCCF)cc2[nH]1
inhibition at 1 µM (A549 [1]): 28%
inhibition at 1 µM (NCI-H460 [2]): 20%
inhibition at 1 µM (NCI-H1299 [3]): 25%

COC(=O)Nc1nc2cc(C(=O)c3ccccc3)ccc2[nH]1 [MEBENDAZOLE]
inhibition at 1 µM (A549 [1]): 48%
inhibition at 1 µM (NCI-H460 [2]): 46%
inhibition at 1 µM (NCI-H1299 [3]): 52%

CC(=O)O[C@H]1C(=O)[C@@]2(C)[C@H]([C@H](OC(=O)c3ccccc3)[C@]3(O)C[C@H](OC(=O)[C@H](O)[C@@H](NC(=O)c4ccccc4)c4ccccc4)C(C)=C1C3(C)C)[C@]1(OC(C)=O)CO[C@@H]1C[C@@H]2O [PACLITAXEL]
inhibition at 1 µM (A549 [1]): 74%
inhibition at 1 µM (NCI-H460 [2]): 63%
inhibition at 1 µM (NCI-H1299 [3]): 73%

COC(=O)Nc1nc2ccc(OCCC(F)(F)F)cc2[nH]1
inhibition at 1 µM (A549 [1]): 18%
inhibition at 1 µM (NCI-H460 [2]): 17%
inhibition at 1 µM (NCI-H1299 [3]): 24%

COC(=O)Nc1nc2cc(Sc3ccccc3)ccc2[nH]1 [FENBENDAZOLE]
inhibition at 1 µM (A549 [1]): 44%
inhibition at 1 µM (NCI-H460 [2]): 43%
inhibition at 1 µM (NCI-H1299 [3]): 59%
